PubChem BioAssay (NCI)
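Dose response: 5 concentrations. Exposure: 48 h. Format: 96-well plates. Endpoint: linear interpolation; highest concentration if not reached. GI50 = concentration required for 50% inhibition of growth. Definition used: TGI = concentration required for complete inhibition of growth.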

What was measured:
Test in all cases: NCI tumour cell line growth inhibition, 48 h
[1] = test system: EKVX NSCLC
[2] = test system: HS 578T breast
[3] = test system: MALME-3M melanoma
[4] = test system: MDA-MB-435
[5] = test system: NCI-H460 lung
[6] = test system: SF-268 CNS
[7] = test system: SF-295 CNS
[8] = test system: SK-MEL-5 melanoma
[9] = test system: UACC-62 melanoma
[10] = test system: CAKI-1 renal

Compound	TGI [1]	TGI [2]	TGI [3]	TGI [4]	TGI [5]	TGI [6]	TGI [7]	TGI [8]	TGI [9]	TGI [10]	GI50 [10]	GI50 [2]	GI50 [3]	GI50 [4]	GI50 [5]	GI50 [6]	GI50 [7]	GI50 [8]	GI50 [9]
O=C(O)c1cc2ccc3ccccc3c2oc1=O	> 100 µM	> 100 µM	> 100 µM	> 100 µM	> 100 µM	> 100 µM	> 100 µM	> 100 µM	> 100 µM										
C[C@]12CCC(=O)C=C1CC[C@@H]1C2CC[C@]2(C)Nc3c(cnn3-c3ccccc3)CC12 (stereo not given in full)	> 100 µM		> 100 µM		> 100 µM		> 10 µM	> 100 µM	> 100 µM	> 100 µM									
COCC(O)Cn1ccnc1[N+](=O)[O-] (stereo not given)	> 100 µM		> 100 µM		> 100 µM	> 100 µM	> 100 µM			> 100 µM									
CCOC1=C2C(=O)OC(=O)C2C2CCCCC2=C1 (stereo not given)	> 100 µM		> 100 µM		> 100 µM	> 100 µM	> 100 µM	> 100 µM	> 100 µM	> 100 µM									
CC(C)CCCC(C)[C@H]1CCC2[C@@H]3CCC4Nc5nocc5C[C@]4(C)C3CC[C@@]21C (stereo not given in full)	31.3 µM		40.2 µM		47.1 µM	36.8 µM	34 µM	29.2 µM	40.7 µM	29 µM									
COc1ccc(-c2nc(-c3ccccc3)c(-c3ccccc3)[nH]2)cc1OC1CCCC1		> 100 µM	> 100 µM	> 100 µM	> 100 µM	> 100 µM	> 100 µM	> 100 µM	> 100 µM	> 100 µM	88 µM	> 100 µM	> 100 µM	> 100 µM	> 100 µM	> 100 µM	49.8 µM	> 100 µM	> 100 µM
OCC1C(/C=C/c2ccoc2)ON2CCCC12 (stereo not given)	> 100 µM		> 100 µM		> 100 µM	> 100 µM	> 100 µM			> 100 µM									
O=C(Nc1cccc(-n2cc(-c3ccncc3)c(-c3ccc(Cl)c(O)c3)n2)c1)c1ccc(N2CCOCC2)c(C(F)(F)F)c1		> 50 µM	4.08 µM	> 50 µM	14.8 µM	> 50 µM	7.55 µM	10.2 µM	18.4 µM	24.6 µM	2.78 µM	1.85 µM	1.25 µM	2.04 µM	1.72 µM	5.58 µM	1.71 µM	2.47 µM	3.26 µM
O=C1NC2(CCCCCC2)C2CCCCCCC12O (stereo not given)	> 100 µM		> 100 µM		> 100 µM	> 100 µM	> 100 µM	> 100 µM	> 100 µM	> 100 µM									
OCC(O)C(Cl)CCl (stereo not given)	> 100 µM	> 100 µM	> 100 µM		> 100 µM	> 100 µM	> 100 µM	> 100 µM	> 100 µM	> 100 µM									
C=CCNC(=O)N(CCCC(NC(C)=O)C(=O)NCc1ccccc1)Cc1ccccc1 (stereo not given)	> 100 µM		> 100 µM		> 100 µM	> 100 µM	> 100 µM	> 100 µM	> 100 µM	> 100 µM									
